Where a SMILES comes first, the peptide text is derived from it.
Columns and labels:
[1] = tested on: SH-SY5Y cells; conditions: αSOs with peptide, MTT
Description: The effect of the peptides on αSOs toxicity in SH-SY5Y cells using 3-(4, 5-dimethylthiazol-2-yl)-2,5-diphenyltetrazolium bromide (MTT) cell viability assay was also tested to complement our calcein data.
We used the MTT assay to measure cell viability after 24 h treatment with αSOs in the presence of peptides. SH-SY5Y cells were seeded in 96-well plates at a density of 5 × 10^4 cell/ml in Dulbecco's modified Eagle's medium supplemented with 10% FBS, 100 unit/ml penicillin, and […]. The cells were incubated in a humidified atmosphere incubator with 5% CO2 and 95% humidity at 37 °C for 24 h. The culture medium was then replaced with fresh medium containing 10 μM αSOs with peptides and incubated for another 24 h. Then the cell medium was replaced with a fresh medium containing 20% MTT (5 mg/ml), and the cells were incubated for an additional 4 h at 37 °C. Then 100 μl of dimethyl sulfoxide was added to dissolve formazan crystals by incubating for 30 min on a shaker at RT. Consequently, absorbance was measured by using a plate reader at 570 nm.

[2] = ThT monitoring of peptides alone for self-fibrillation; assay type: physicochemical; conditions: peptide alone (controls 1 mg/mL), 37 °C with shaking
Description: To test the effects of these selected nine peptides on the aggregation of α-syn, we performed a thioflavin T (ThT) fluorescence assay in the presence of 1 mg/ml α-syn and 0 to 0.5 mg/ml peptide for 48 h (raw data in Fig. S3). Furthermore, the peptides alone were monitored for self-fibrillation. […] High concentrations of p222, p194, and p249 led to a decline in ThT fluorescence after reaching a plateau, possibly because of the formation of insoluble amorphous species. We also carried out seeding experiments by adding 5% sonicated preaggregated α-syn fibrils to the ThT assay.
About 150 μl of 70 μM (1 mg/ml) α-syn, 40 μM ThT, and varying amounts of peptides (0, 0.06, 0.125, 0. 25, 0.375, and 0.5 mg/ml) were transferred in triplicates to a black COSTAR 96-well clear bottom plate (Nunc, Thermo Fisher Scientific), and including a 3 mm diameter glass bead (Glaswarenfabrik Karl Hecht GmbH & Co KG) per well to increase reproducibility ([100]). The plate was sealed with Crystal Clear sealing tape (Hampton Research) and incubated at 37 °C in a CLARIOstar Plus (BMG LABTECH) fluorescence plate reader. Fibrillation was carried out for ∼48 h with 300 rpm double orbital shaking between the readings for 372 s (excitation/emission: 448∕485 nm). […]
[picture] […] The effect of the 9 peptides on α-syn fibrillation monitored by ThT fluorescence. […]

Molecule | Effect on cell survival in the presence of toxic αSOs, in words [1] | Self-fibrillation of the peptide alone [2]
CC[C@H](C)[C@H](NC(=O)[C@H](Cc1c[nH]c2ccccc12)NC(=O)[C@H](CCCNC(=N)N)NC(=O)[C@H](Cc1c[nH]c2ccccc12)NC(=O)[C@H](CCCCN)NC(=O)[C@@H](NC(=O)[C@H](CCCCN)NC(=O)[C@H](CCC(N)=O)NC(=O)[C@@H](N)CC(N)=O)[C@@H](C)CC)C(=O)N[C@@H](CCC(N)=O)C(=O)N[C@@H](CCCNC(=N)N)C(=O)N[C@@H](Cc1ccccc1)C(=O)N[C@@H](CCCNC(=N)N)C(=O)N[C@@H](CCCCN)C(=O)N[C@@H](CCCCN)C(=O)N[C@@H](CCSC)C(=O)O [p235] (H-NQKIKWRWIQRFRKKM-OH; N-terminus and C-terminus assumed) | did not show positive effects | 
CC[C@H](C)[C@H](NC(=O)[C@H](Cc1ccccc1)NC(=O)[C@H](Cc1c[nH]c2ccccc12)NC(=O)[C@H](CCCNC(=N)N)NC(=O)[C@H](CC(N)=O)NC(=O)[C@@H](NC(=O)[C@H](CCC(N)=O)NC(=O)[C@H](CCCCN)NC(=O)[C@@H](N)CCSC)[C@@H](C)CC)C(=O)N[C@@H](CCCNC(=N)N)C(=O)N[C@@H](Cc1c[nH]c2ccccc12)C(=O)N[C@@H](CCC(N)=O)C(=O)N[C@@H](CCCCN)C(=O)N[C@@H](CCCCN)C(=O)N[C@@H](CCCNC(=N)N)C(=O)N[C@@H](CCCCN)C(=O)O [p249] (H-MKQINRWFIRWQKKRK-OH; N-terminus and C-terminus assumed) | did not show positive effects | 
RQIKIWFQNRRFKWKK [p222, penetratin with modulated hydrophobicity] |  | slight self-fibrillation tendencies

— PMC9791135, “A penetratin-derived peptide reduces the membrane permeabilization and cell toxicity of α-synuclein oligomers” (The Journal of Biological Chemistry, 2022)
